For series [1], the system named is male Sprague-Dawley (SD) rats. Briefly: Carrageenan-induced foot edema in rats (CFE). In kind it is in vivo. The note with it: oral dose 3 mg/kg body weight, rat, paw volume 3 hours after Carrageenan. The protocol: An appropriate amount of a compound of this invention suspended in 1% methylcellulose (MC) solution was administered to male Sprague-Dawley (SD) rats weighing 150˜200 g by oral gavage. The volume of the administered vehicle for a compound of this invention was controlled to be smaller than 10 ml/kg body weight of the animal. One hour later, 0.1 ml of 1% Carrageenan saline solution was directly injected into the right paw of the rats to induce edema in the paw. The paw volumes at 0 hour and at 3 hours after the injection of Carrageenan were measured by using a displacement plethysmometer (Ugo Basile, Italy). The paw volumes were used to calculate % inhibition of CFE by an amount of a compound of this invention according to the following equation.
% Inhibition of CFE=(1−Δtreated/Δcontrol)×100
wherein Δtreated=[paw volume at three hours after the Carrageenan injection−paw volume right after Carrageenan injection] for a drug-administered rat, and Δcontrol=[paw volume at three hours after the Carrageenan injection−paw volume right after Carrageenan injection] for a rat without drug administration.
In order to determine the inhibitory activity of a compound of this invention at a dose, usually 5 to 8 animals were used both for drug-treated group and for control group.

In a further series the target is T1, COX-1 (Mus musculus, UniProt P22437).
T1 sequence (P22437 27-602): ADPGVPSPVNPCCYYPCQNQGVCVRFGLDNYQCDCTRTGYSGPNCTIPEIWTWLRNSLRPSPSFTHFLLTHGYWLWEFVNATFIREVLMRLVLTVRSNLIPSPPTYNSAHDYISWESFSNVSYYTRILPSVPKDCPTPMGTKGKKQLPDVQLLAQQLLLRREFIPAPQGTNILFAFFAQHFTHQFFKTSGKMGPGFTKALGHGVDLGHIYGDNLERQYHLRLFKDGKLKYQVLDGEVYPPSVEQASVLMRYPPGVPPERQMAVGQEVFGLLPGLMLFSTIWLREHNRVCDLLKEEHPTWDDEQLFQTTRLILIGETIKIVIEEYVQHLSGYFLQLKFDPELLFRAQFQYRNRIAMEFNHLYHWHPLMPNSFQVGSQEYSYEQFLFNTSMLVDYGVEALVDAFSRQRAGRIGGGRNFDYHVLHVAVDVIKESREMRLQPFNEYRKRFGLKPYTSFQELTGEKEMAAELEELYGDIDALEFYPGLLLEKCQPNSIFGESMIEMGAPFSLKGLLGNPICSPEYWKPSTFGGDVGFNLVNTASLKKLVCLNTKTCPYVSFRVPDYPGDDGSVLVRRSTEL
The experiment in a line: Evaluation of COX-1 activity: PGE2 formation in mouse peritoneal macrophages without aspirin and LPS treatment. In kind it is cell-based. Summed up: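 Peritoneal macrophages from C57BL/6 mice, without aspirin or LPS treatment, were plated at 1×10^6 cells/ml and fixed 2 h at 37 °C. Cells were preincubated 10 min, then given 10 μM arachidonic acid plus compound for 10 min; PGE2 was measured by RIA or EIA. IC50 came from 4–5 concentrations.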

The next series deals with male SD rat. The experiment in a line: Gastric safety studies (Ulcer Index). In kind it is in vivo. As to conditions: daily dose 30 mg/kg body weight oral for 7 days, mean of animals' scores. On the procedure:
Gastric safety for compounds of this invention was evaluated as follows [Otterness et al., Laboratory Models for Testing Nonsteroidal Anti-inflammatory Drugs in Nonsteroidal Anti-inflammatory Drugs; ed John Wiley & Sons pp 217-227 (1985); Wiley Interscience; New York]: A designated dose of a compound of this invention suspended in 1% methylcellulose solution was administered daily once for 7 days to a male SD rat by oral gavage. The animal was sacrificed and the inner wall of the stomach was examined visually 4 hours after the last administration (the 7th day administration). The gastric safety was assessed by the “Ulcer Index” as defined as the following scores: […]
Score 1: apparently normal stomach.
Score 2: one or more than one ulcer site of pin-point size only.
Score 3: erosions of 2 or fewer than 2, which may be accompanied by ulcers of pin-point size (an erosion is defied by any ulcerative lesion of any dimension greater than 1 mm).
Score 4: erosions more than 2, which may be accompanied by ulcers of pin-point size.
Score 5: erosions accompanied by hemorrhage.
In evaluating the gastric safety of a compound of this invention, usually 8 animals were used. The ulcer index for a compound was calculated by averaging of the ulcer index of each animal. The following Table 5 illustrates gastric safety of some COX-2 selective inhibitors of this invention.

Values after ≈ are worked out from the molar mass of the structure shown.

The values that follow come from US6492416B1, “4,5-diaryl-3(2H)-furanone derivatives as cyclooxygenase-2 inhibitors” (Pacific Corporation, priority 1999, dated 2002).

`CC1(C)OC(c2ccc(S(N)(=O)=O)cc2)=C(c2cccc(F)c2)C1=O` [Example 129, 5-{4-(aminosulfonyl)phenyl}-2,2-dimethyl-4-(3-fluorophenyl)-3(2H)-furanone]: the “% Inhibition (CFE)” value in series [1] worked out at 47%. The “IC50, μg/ml COX-1” value at COX-1 is 1.02 µg/mL (≈ 2.82 µM).
For the compound `CC1(C)OC(c2ccc(S(N)(=O)=O)cc2)=C(c2cccc(Cl)c2)C1=O` [Example 126], the “% Inhibition (CFE)” value in series [1] came out at 39%. Moreover, the “IC50, μg/ml COX-1” value at COX-1 came out at 3.82 µg/mL (≈ 10.1 µM).
`CC1(C)OC(c2ccc(S(C)(=O)=O)cc2)=C(c2cccc(F)c2)C1=O` [Example 4, 2,2-Dimethyl-4-(3-fluorophenyl)-5-{4-(methylsulfonyl)phenyl}-3(2H)-furanone]: the “Ulcer Index (1˜5)” value in the series with male SD rat is reported as 1.8 ± 0.7. In series [1], the “% Inhibition (CFE)” value came out at 36%. The “IC50, μg/ml COX-1” value at COX-1 was 5 µg/mL (≈ 13.9 µM).
With `CC1(C)OC(c2ccc(S(N)(=O)=O)cc2F)=C(c2ccc(F)cc2)C1=O` [Example 334], the “% Inhibition (CFE)” value in series [1] stood at 37%. Also, the “IC50, μg/ml COX-1” value against COX-1 was found to be 3 µg/mL (≈ 7.91 µM).
As to `CC1(C)OC(c2ccc(S(C)(=O)=O)cc2)=C(c2cc(F)cc(F)c2)C1=O` [Example 11, 4-(3,5-Difluorophenyl)-2,2-dimethyl-5-{4-(methylsulfonyl)phenyl}-3(2H)-furanone], the “Ulcer Index (1˜5)” value with male SD rat came out at 1.8 ± 1.0. The “IC50, μg/ml COX-1” value against COX-1 amounted to 20 µg/mL (≈ 52.9 µM).
